In this test the test system is AsPC-1 cells. The test can be described thus: phospho-ERK HTRF assay in AsPC-1 cells, 4 h treatment. Type of test: cell-based. As to conditions: Homo sapiens, ASPC1.
Setting [1] is: AsPC-1, 4H, Table 1a class column, read-out: pERK IC50 activity range (*).
[2] abbreviates: AsPC-1, 4H, Table 1a, read-out: PERK IC50 (AsPC-1, 4H).
The mark [3] stands for this setting: AsPC-1, 4h, Table 1b, read-out: PERK IC50 (AsPC-1, 4h).

Like-named read-outs stand apart in the source and are kept apart here.

As to `CN(C)C(=O)c1nn2c(c1Cl)CN(c1nc(OC[C@@]34CCCN3CC(=C(F)F)C4)nc3c1CO[C@@H](c1c(F)c(N)cc(Cl)c1C(F)(F)F)C3)CCC2` [248b, 5-((R)-7-(3-amino-5-chloro-2-fluoro-6-(trifluoromethyl)phenyl)-2-(((S)-2-(difluoromethylene)tetrahydro-1H-pyrrolizin-7a(5H)-yl)methoxy)-7,8-dihydro-5H-pyrano[4,3-d]pyrimidin-4-yl)-3-chloro-N,N-dimethyl-5,6,7,8-tetrahydro-4H-pyrazolo[1,5-a][1,4]diazepine-2-carboxamide], the IC50 by setting is: under setting [1], over 0.5 µM; under setting [2], over 2.5 µM.

On to `CON(C)C(=O)c1nn2c(c1Cl)CN(c1nc(OC[C@@]34CCCN3C/C(=C\F)C4)nc3c1COC(c1c(F)c(N)cc(Cl)c1C(F)(F)F)C3)CCC2` (stereo partly drawn) [compound 463], for which the IC50 under setting [1] lay within 0.01 to 0.03 µM.

On to `Cc1cc(N)cc([C@@H]2Cc3nc(OC[C@@]45CCCN4C[C@H](F)C5)nc(N4CCCn5nc(C(=O)N(C)C)c(C)c5C4)c3CO2)c1C(F)(F)F` [compound 405], for which, under setting [1], the IC50 fell in the range of 0.01 to 0.03 µM.

Turning to `CC#Cc1cc(N)cc([C@@H]2Cc3nc(OC[C@@]45CCCN4C/C(=C\F)C5)nc(N4CCCn5nc(C(=O)N6CCCC6)cc5C4)c3CO2)c1C(F)(F)F` [compound 420], the IC50 under setting [3] is under 0.01 µM.

Take `CCN(C)C(=O)c1cc2n(n1)CCCN(c1nc(OC[C@@]34CCCN3C/C(=C\F)C4)nc3c1CO[C@H](c1cc(N)cc(C)c1C(F)(F)F)C3)C2` [compound 413]: under setting [3], the IC50 is under 0.01 µM.

On to `CN(C)C(=O)c1nn2c(c1Cl)CN(c1nc(OC[C@@]34CCCN3C[C@H](F)C4)nc3c1COC(c1cc(N)cc(Cl)c1C(F)(F)F)C3)CCC2` (stereo partly drawn) [compound 236], for which, under setting [3], the IC50 was under 0.01 µM.

For `CN(C)C(=O)c1nn2c(c1Cl)CN(c1nc(OC[C@@]34CCCN3C[C@H](F)C4)nc3c1CO[C@H](c1cc(N)cc(F)c1C(F)(F)F)C3)CCC2` [compound 402], under setting [1], the IC50 is 0.01 to 0.03 µM.

Take `CN(C)C(=O)c1nn2c(c1Cl)CN(c1nc(OC[C@@]34CCCN3C[C@H](F)C4)nc3c1COC(c1cc(N)ccc1C(F)(F)F)C3)CCC2` (stereo in doubt) [230a, 5-((S)-7-(5-amino-2-(trifluoromethyl)phenyl)-2-(((2R,7aS)-2-fluorotetrahydro-1H-pyrrolizin-7a(5H)-yl)methoxy)-7,8-dihydro-5H-pyrano[4,3-d]pyrimidin-4-yl)-3-chloro-N,N-dimethyl-5,6,7,8-tetrahydro-4H-pyrazolo[1,5-a][1,4]diazepine-2-carboxamide]: the IC50 by setting is: under setting [1], over 0.5 µM; under setting [2], over 10 µM.

For the compound `CN1CCN(c2nc(OC[C@@]34CCCN3C[C@H](F)C4)nc3c2COC(c2c(C(F)(F)F)ccc(N)c2F)C3)CCC1=O` (stereo partly drawn) [compound 201], the IC50 is over 0.5 µM under setting [1] and over 10 µM under setting [2].

Take `CN(C)C(=O)c1nn2c(c1Cl)CN(c1nc(OCC34CCCN3CC(=C(F)F)C4)nc3c1COC(c1c(C(F)(F)F)ccc(N)c1F)C3)CCC2` (stereo not drawn) [compound 231]: the IC50 reads like this: under setting [1], 0.031 to 0.1 µM; under setting [2], 0.056 µM.

As for `CS(=O)(=O)c1nn2c(c1Cl)CN(c1nc(OC[C@@]34CCCN3C[C@H](F)C4)nc3c1CO[C@@H](c1c(C(F)(F)F)ccc(N)c1F)C3)CCC2` [211b], the IC50 under setting [1] is over 0.5 µM and the IC50 under setting [2] was over 10 µM.

For the compound `CC#Cc1cc(N)cc([C@@H]2Cc3nc(OC[C@@]45CCCN4C/C(=C\F)C5)nc(N4CCCn5nc(C(=O)N6CCCC6)c(Cl)c5C4)c3CO2)c1C(F)(F)F` [compound 430], the IC50 under setting [3] is under 0.01 µM.

On to `CN(C)C(=O)c1nn2c(c1Cl)CN(c1nc(OC[C@@]34CCCN3C/C(=C\F)C4)nc3c1CO[C@H](c1c(F)c(N)cc(Cl)c1Cl)C3)CCC2` [compound 436], for which, under setting [3], the IC50 was under 0.01 µM.

For orientation: IC50 means the concentration that inhibits the measured activity by half.
